Measurements taken from patent US20230303540A1 (Merck Sharp & Dohme LLC, priority 2020, published 2023).

Target: GST-tagged truncated human mutant G2019S LRRK2 (Homo sapiens, UniProt Q5S007, G2019S)
Assay: LRRK2 G2019S Km ATP LanthaScreen assay
Type: biochemical
Settings: 134 μM ATP (Km ATP), LRRKtide substrate, mean IC50 values; read-out: LRRK2 pIC50 (converted)
How it was run: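 Compound preincubated 15 min at room temperature with enzyme in pH 8.5 Tris buffer (10 mM MgCl2). Then a 90 min reaction at ambient temperature with 134 μM (Km) ATP and fluorescein-LRRKtide. EDTA stop, Tb anti-phospho antibody TR-FRET; […]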

SMILES	IC50
Cc1c(Nc2cc3cc(N4CCN(C5(C)COCC5O)CC4)c(Cl)cc3cn2)cnn1C1CC1(F)F (single isomer, unassigned) [Ex-6.53, (3S,4S) or (3R,4R) 4-(4-(7-chloro-3-((1-(2,2-difluorocyclopropyl)-5-methyl-1H-pyrazol-4-yl)amino)isoquinolin-6-yl)piperazin-1-yl)-4-methyltetrahydrofuran-3-ol]	0.522 nM
C[C@]1(O)[C@@H]2CC[C@H]1CN(c1cc3nc(Nc4cnn(C5CC5)c4)ncc3cc1Cl)C2 [Ex-1.36, (8-syn)-3-{6-chloro-2-[(1-cyclopropyl-1H-pyrazol-4-yl)amino]quinazolin-7-yl}-8-methyl-3-azabicyclo[3.2.1]octan-8-ol]	6.72 nM
Cc1cc2cnc(Nc3cnn(C45CC(C4)C5)c3Cl)nc2cc1N1CCN(C2COCC2O)CC1 (single isomer, unassigned) [Ex-13.3, (3S,4S) or (3R, 4R)-4-(4-(2-((1-(bicyclo[1.1.1]pentan-1-yl)-5-chloro-1H-pyrazol-4-yl)amino)-6-methylquinazolin-7-yl)piperazin-1-yl)tetrahydrofuran-3-ol]	6.98 nM
OC1COCC1N1CCN(c2cc3nc(Nc4cnn(C(F)F)c4)ncc3cc2Cl)CC1 (single isomer, unassigned) [Ex-6.46, (3S,4S) or (3R,4R) 4-(4-(6-chloro-2-((1-(difluoromethyl)-1H-pyrazol-4-yl)amino)quinazolin-7-yl)piperazin-1-yl)tetrahydrofuran-3-ol]	18.4 nM
Clc1cc2cnc(Nc3cnn(C4CC4)c3Cl)nc2cc1N1CCc2[nH]ncc2C1 [Ex-3.25, 6-chloro-N-(5-chloro-1-cyclopropyl-1H-pyrazol-4-yl)-7-(1,4,6,7-tetrahydro-5H-pyrazolo[4,3-c]pyridin-5-yl) quinazolin-2-amine]	1.21 nM
C[C@H]1CN(C)CCN1c1cc2nc(Nc3cnn(C4(C)CC4)c3Cl)ncc2cc1Cl [Ex-4.36, 6-chloro-N-[5-chloro-1-(1-methylcyclopropyl)-1H-pyrazol-4-yl]-7-[(2S)-2,4-dimethylpiperazin-1-yl]quinazolin-2-amine]	6.06 nM
CC1(O)CCN(c2cc3nc(Nc4cnn(C(C)(C)C#N)c4Cl)ncc3cc2Cl)CC1 [Ex-6.6, 2-(5-chloro-4-{[6-chloro-7-(4-hydroxy-4-methylpiperidin-1-yl)quinazolin-2-yl]amino}-1H-pyrazol-1-yl)-2-methylpropanenitrile]	4.02 nM
Cc1c(Nc2ncc3cc(Cl)c(N4CCN(C5(C)COCC5O)CC4)cc3n2)cnn1C1CC1(F)F (single isomer, unassigned) [Ex-6.40, (3S,4S) or (3R,4R) 4-[4-(6-chloro-2-{[1-(2,2-(R) or (S)difluorocyclopropyl)-5-methyl-1H-pyrazol-4-yl]amino}quinazolin-7-yl)piperazin-1-yl]-4-methyloxolan-3-ol]	0.352 nM
Cc1nsc(Nc2ncc3ccc(N4C(=O)OC[C@@H]4C)cc3n2)c1C [Ex-7.12, (4S)-3-{2-[(3,4-dimethyl-1,2-thiazol-5-yl)amino]quinazolin-7-yl}-4-methyl-1,3-oxazolidin-2-one]	0.625 nM
Cc1cc2cnc(Nc3cnn(C4CC4)c3C)nc2cc1N1CCN(C2COCC2O)CC1 (single isomer, unassigned) [Ex-5.7, (3S,4S) or (3R,4R) 4-(4-{2-[(1-cyclopropyl-5-methyl-1H-pyrazol-4-yl)amino]-6-methylquinazolin-7-yl}piperazin-1-yl)oxolan-3-ol]	0.197 nM
CC1(N2CCN(c3cc4nc(Nc5cnn(C6(C(F)(F)F)CC6)c5Cl)ncc4cc3Cl)CC2)COC1 [Ex-3.24, 6-chloro-N-{5-chloro-1-[1-(trifluoromethyl)cyclopropyl]-1H-pyrazol-4-yl}-7-[4-(3-methyloxetan-3-yl)piperazin-1-yl]quinazolin-2-amine]	3.68 nM
CC1(O)CCN(c2cc3nc(Nc4cnn(C5CC5)c4Cl)ncc3cc2Cl)C1 (stereo not drawn) [Ex-1.38, 1-{6-chloro-2-[(5-chloro-1-cyclopropyl-1H-pyrazol-4-yl)amino]quinazolin-7-yl}-3-methylpyrrolidin-3-ol]	9.77 nM
CC1CN(c2cc3nc(Nc4cnn(C5CC5)c4Cl)ncc3cc2Cl)CCN1CC(C)(C)O (stereo not drawn) [Ex-1.32, 1-(4-{6-chloro-2-[(5-chloro-1-cyclopropyl-1H-pyrazol-4-yl)amino]quinazolin-7-yl}-2-methylpiperazin-1-yl)-2-methylpropan-2-ol]	5.49 nM
Cc1c(Nc2ncc3ccc(N4C(=O)OC[C@@H]4C)cc3n2)cnn1C1CCOCC1 [Ex-1.48, (4S)-4-methyl-3-(2-{[5-methyl-1-(oxan-4-yl)-1H-pyrazol-4-yl]amino}quinazolin-7-yl)-1,3-oxazolidin-2-one]	0.625 nM
Cc1cc2cnc(Nc3cnn(C45CC(F)(C4)C5)c3Cl)nc2cc1N1CCNCC1 [Ex-5.15, N-(5-chloro-1-(3-fluorobicyclo[1.1.1]pentan-1-yl)-1H-pyrazol-4-yl)-6-methyl-7-(piperazin-1-yl)quinazolin-2-amine]	25.1 nM
CC1(N2CCN(c3cc4nc(Nc5cnn(C6CC6)c5)ncc4cc3Cl)CC2)COC1 [Ex-4.18, 6-chloro-N-(1-cyclopropyl-1H-pyrazol-4-yl)-7-[4-(3-methyloxetan-3-yl)piperazin-1-yl]quinazolin-2-amine]	2.39 nM
CC1(N2CCN(c3cc4nc(Nc5cnn(C6CC6)c5Cl)ncc4cc3Cl)CC2)COCC1O (single isomer, unassigned) [Ex-1.45, (3S,4S or 3R,4R)-4-(4-{6-chloro-2-[(5-chloro-1-cyclopropyl-1H-pyrazol-4-yl)amino]quinazolin-7-yl}piperazin-1-yl)-4-methyloxolan-3-ol]	21.3 nM
Cc1c(Nc2ncc3cc(Cl)c(N4CCC(C)(O)CC4)cc3n2)cnn1C1CC1(F)F (single isomer, unassigned) [Ex-6.10, 1-(6-chloro-2-{[1-(2,2-(R) or (S)difluorocyclopropyl)-5-methyl-1H-pyrazol-4-yl]amino}quinazolin-7-yl)-4-methylpiperidin-4-ol]	0.2 nM
Cn1ncc(Nc2ncc3ccc(N4C(=O)C5CCC4C5)cc3n2)c1C(F)F (single isomer, unassigned) [Ex-4.6, 2-(2-{[5-(difluoromethyl)-1-methyl-1H-pyrazol-4-yl]amino}quinazolin-7-yl)-2-azabicyclo[2.2.1]heptan-3-one]	34.9 nM
CC(C)(O)CN1CCN(c2cc3nc(Nc4cnn(C5CC5)c4Cl)ncc3cc2Cl)CC1 [Ex-1.31, 1-(4-{6-chloro-2-[(5-chloro-1-cyclopropyl-1H-pyrazol-4-yl)amino]quinazolin-7-yl}piperazin-1-yl)-2-methylpropan-2-ol]	10.1 nM
Cc1c(Nc2ncc3cc(Cl)c(N4CCC(C)(O)C(C)C4)cc3n2)cnn1C1CC1 (single isomer, unassigned) [Ex-3.49, (3R,4R) or (3S,4S) or (3R,4S) or (3S,4R) 1-{6-chloro-2-[(1-cyclopropyl-5-methyl-1H-pyrazol-4-yl)amino]quinazolin-7-yl}-3,4-dimethylpiperidin-4-ol]	1.33 nM
Cc1c(Nc2cc3cc(N4CCN([C@]5(C)COC[C@@H]5O)CC4)c(Cl)cc3cn2)cnn1C1CC1 (single isomer, unassigned) [Ex-1.2, (3R,4R) or (3S,4S) 4-(4-(7-chloro-3-((1-cyclopropyl-5-methyl-1H-pyrazol-4-yl)amino)isoquinolin-6-yl)piperazin-1-yl)-4-methyltetrahydrofuran-3-ol]	8.41 nM
[2H]C([2H])([2H])n1nc(C(C)(C)n2nccn2)cc1Nc1ncc2cc(Cl)c(N3CCC(C)(O)CC3)cc2n1 [Ex-14.1, 1-(2-((3-(2-(2H-1,2,3-Triazol-2-yl)propan-2-yl)-1-(methyl-d3)-1H-pyrazol-5-yl)amino)-6-chloroquinazolin-7-yl)-4-methylpiperidin-4-ol]	4.11 nM
Cn1ncc(Nc2ncc3ccc(N4C(=O)C5CCC4C5)cc3n2)c1C(F)(F)F (single isomer, unassigned) [Ex-4.4, 2-(2-{[1-methyl-5-(trifluoromethyl)-1H-pyrazol-4-yl]amino}quinazolin-7-yl)-2-azabicyclo[2.2.1]heptan-3-one]	24.6 nM
CN(C)c1cc2nc(Nc3cnn(C4CC4)c3)ncc2cc1Cl [Ex-3.29, 6-chloro-N-2-(1-cyclopropyl-1H-pyrazol-4-yl)-N-7-,N-7-dimethylquinazoline-2,7-diamine]	8.79 nM
CC(C)n1ncc(Nc2ncc3cc(Cl)c(N4CCN(C5(C)COCC5O)CC4)cc3n2)c1C(F)F (single isomer, unassigned) [Ex-6.50, (3S,4S) or (3R,4R) 4-(4-(6-chloro-2-((5-(difluoromethyl)-1-isopropyl-1H-pyrazol-4-yl)amino)quinazolin-7-yl)piperazin-1-yl)-4-methyltetrahydrofuran-3-ol]	0.08 nM
CN1CCC2(CCN(c3cc4nc(Nc5cnn(CC(C)(C)O)c5Cl)ncc4cc3Cl)C2)C1 (stereo not drawn) [Ex-1.13, 1-(5-chloro-4-{[6-chloro-7-(7-methyl-2,7-diazaspiro[4.4]nonan-2-yl)quinazolin-2-yl]amino}-1H-pyrazol-1-yl)-2-methylpropan-2-ol]	21 nM
Cc1c(Nc2ncc3cc(Cl)c(N4C[C@H]5CC[C@@H](C4)[C@@]5(C)O)cc3n2)cnn1C1CC1 [Ex-3.27, (8-syn)-3-{6-chloro-2-[(1-cyclopropyl-5-methyl-1H-pyrazol-4-yl)amino]quinazolin-7-yl}-8-methyl-3-azabicyclo[3.2.1] octan-8-ol]	0.486 nM
CN1CC2CC1CN2c1cc2nc(Nc3cnn(C4(C)CC4)c3Cl)ncc2cc1Cl (stereo not drawn) [Ex-4.35, 6-chloro-N-[5-chloro-1-(1-methylcyclopropyl)-1H-pyrazol-4-yl]-7-(5-methyl-2,5-diazabicyclo[2.2.1]heptan-2-yl)quinazolin-2-amine]	4.91 nM
OC1COCC1N1CCN(c2cc3nc(Nc4cnn(C5CC5(F)F)c4Cl)ncc3cc2Cl)CC1 (single isomer, unassigned) [Ex-6.29, (3S,4S) or (3R,4R) 4-[4-(6-chloro-2-{[5-chloro-1-(2,2-(R) or (S)difluorocyclopropyl)-1H-pyrazol-4-yl]amino}quinazolin-7-yl)piperazin-1-yl)oxolan-3-ol]	15.2 nM
